Earlier results on 1 compound are cited in patent US10806143B2, “Herbicidal composition in granular form” (priority 2009, dated 2020).

Each structure is given as a SMILES string.

For the data set the following is noted: at 20° C.

`CCOC(=O)C(Cl)Cc1cc(-n2nc(C)n(C(F)F)c2=O)c(F)cc1Cl` (stereo not shown) [carfentrazone-ethyl, ethyl 2-chloro-3-[2-chloro-5-(4-difluoromethyl-3-methyl-5-oxo-4,5-dihydro-[1,2,4]triazol-1-yl)-4-fluorophenyl]propionate]: the water solubility was 22 milligrams per liter.
